Laboratory results from patent US8754052B2, “Treatment of nephrolithiasis and urolithiasis using 1,2,3,4,6-penta-O-galloyl-beta-D-glucose (PGG)” (Mayo Foundation for Medical Education and Research, priority 2008, dated 2014).

Legend:
MDCK I cells [1] = experiment: Wound healing assay (migration after scrape wounding); type: cell-based, Canine; settings: Canis lupus familiaris, 24 h, FIG. 3, read-out: inhibiting wound healing (migration after scrape wounding)
Description: (§1) Renal epithelial cells were of the Madin-Darby Canine kidney (MDCK) line, type I, derived from the distal nephron. Cells were grown in DMEM containing 25 mmol/L glucose at 37° C. in a humidified atmosphere containing […] CO2. To prepare high-density, quiescent cultures at 1×10^6 cells/35-mm plastic plate (9.62 cm^2; Nunc, Naperville, Ill., USA) were performed in DMEM containing 10% fetal bovine serum. Two days later when the cells were confluent, the established monolayer was used in the examples that follow.
MDCK I cells were seeded in a 35-mm plastic plate to confluent status overnight and incubated with serum-free medium for 6 h. A plastic pipette tip (200 μl size) was used to scrape a line between the MDCK1 cells that was approximately 2 to 3 mm wide across the entire culture dish. The medium was replaced by serum-free medium including various concentrations (1, 5 and 10 μM) of PGG. After incubation at 37° C. for 24 h, each plate was photographed (100×) and quantified.

[2] = test system: hyperoxaluric wild type rats; experiment: Ethylene glycol/ammonium chloride induced nephrolithiasis in hyperoxaluric rats; type: in vivo, Harlan Sprague Dawley Rats; settings: for Serum BUN (mean ± SD) / Serum Calcium (mean ± SD) / Serum Creatinine (mean ± SD) / Serum Phosphate (mean ± SD) / Serum Uric acid (mean ± SD): rat serum; for Urine Calcium / Urine Mean Vol ± SD / Urine Mean pH ± SD: rat urine; for Survival (%): rats
Description: Rats were administered PGG, with and without ethylene glycol given to render the rats hyperoxaluric. The effect of PGG on renal crystal deposition was assessed, to confirm the ability of PGG to prevent crystal deposition. Urine of animals was collected and extensively studied to quantitate biochemical and functional changes, and determine the mechanism of the apparent salutary effects, in several studies outlined in Table 1. Functional effects of treated rat urine on crystal nucleation, growth, aggregation and cell interaction was also tested, and compared to urine from control animals.
Six rats per group were treated (see Table 1 below). Harlan Sprague Dawley Rats (300 g) received 0.8% ethylene glycol and 1% ammonium chloride mixed with the drinking water to induce nephrolithiasis, PGG in 2 different doses (4 mg/kg and 20 mg/kg), or both for a full 4 weeks. The doses of PGG covered the range deemed effective in mouse experiments on angiogenesis over a 2-log range factored for relative body size. PGG was administered to all rats via […]. Urine was collected for chemistries and crystalluria quantification at weekly intervals, with full urinary inhibition studies at 3 weeks, and histologic evaluation after week 3. Kidneys were examined quantitatively for the presence of cortical and medullary crystals, as well as interstitial fibrosis, by a blinded observer. Crystal deposition within cortex and medulla were also quantified under polarizing microscopy using Metamorph software.
Twenty four-hour rat urine samples were collected in a metabolic cage with sodium azide as a preservative. Urine was centrifuged, the pellet resuspended, and crystal size and quantity assessed in a hemocytometer.
Spot urine or 24-hr urine samples from individual rats under study were assayed before and after hyperoxaluric treatment. Spot urine samples were collected directly into Eppendorf tubes, centrifuged at 5,000×g for 5 min to dispose of cell debris, and stored at −80° C. until use. Urinary concentrations of oxalate, calcium and other determinants of SS were measured. SS was calculated using the EQUIL2 program.
Urine chemistry and enzymes were evaluated to measure urine pH, […] clearance, the presence and concentration of oxalate, calcium, citrate, and 8-Hydroxy-2′-deoxyguanosine (8-OH-dG). 8-OH-dG has been regarded as a potential marker of oxidative DNA damage induced by ROS. Urinary 8-OHdG was measured using a commercially available competitive 8-OHdG enzyme-linked immunosorbent assay kit. The number of oxalate crystal deposits in the kidneys was measured using a hematoxylin and eosin stain. Reverse transcriptase PCR (RT-PCR) was used to detect and quantify superoxide dismutase (SOD) mRNA and osteopontin mRNA. Immunohistochemical staining techniques were used to measure SOD and osteopontin protein expression […]. Blood chemistry was also studied to measure levels of creatinine, uric acid, phosphate, blood urea nitrogen (BUN), and malondialdehyde (MDA) in the subjects.

MDCK I cells [3] = experiment: Cytotoxicity assay (MTT colorimetric assay); type: cell-based, Canine
Description: as §1
The effect of PGG on cytotoxicity against MDCK 1 cells was evaluated using a MTT (3-(4,5-dimethylthiazol-2-yl)-2,5-diphenyltetrazolium bromide) colorimetric assay. PGG was dissolved with dimethylsulfoxide (DMSO). The cells were seeded onto 96-well microplates at a density of 1×10^4 cells per well in 100 μL of DMEM containing 10% fetal bovine serum. […] Cells were incubated at 37° C. for 1 h and the optical density was measured using a microplate reader (Molecular Devices Co.) set at 570 nm. Cell viability was calculated as the percentage of viable cells in the PGG treated group versus those in the untreated control group using the following equation: cell viability (%)=[OD (PGG)−OD (Blank)/OD (Control)−OD (Blank)]×100.

[4] = Toxicology study in mice orally fed with PGG; type: in vivo, ICR mice; settings: oral 10, 20 and 40 mg/kg
Description: To examine the optimal dose for animal study, a toxicology study was performed in mice orally fed with PGG (10, 20, and 40 mg/kg). Each group consisted of five ICR mice.

hyaluronan = experiment: Hyaluronan expression by confocal microscopy and Western blot; type: cell-based, Canine
Description: A middle line was scraped in the confluent MDCK 1 cells grown on coverslips using a 200 μL plastic pipette tip. The MDCK I cells on coverslips were then exposed to various concentrations (1, 5 and 10 μM) of PGG for 15 minutes or 24 hours at 37° C. The coverslips were rinsed three times with PBS, and fixed using 3.7% formaldehyde in PBS for 15 min. Cells were then rinsed three times with PBS and incubated with 1% goat serum for 1 h to block nonspecific binding sites. The goat serum was aspirated and the cells were incubated for 1 hour in a humidified chamber at 37° C. with biotinylated HABP. The cells were then washed with PBS (10 min×3) and then incubated 1 h with an avidin-conjugated Texas red (Molecular Probes, Eugene, Oreg.) in a humidified chamber at 37° C. Cells were again washed with PBS (10 min×3), and the coverslips were mounted onto glass slides using Slow-Fade (Molecular Probes, Eugene, Oreg.). The XZ section was scanned using a LSM 510 confocal microscope (Carl Zeiss, Oberkochen, Germany) equipped with an Axiovert 100M microscope and a c-Apochromat 63/1.2 numerical aperture water-immersion lens. Texas red was excited at 568-nm of an argon-krypton laser and the Emission for Texas red was collected at >585 nm.
For Western blotting, MDCK-I cells with or without scrape-wounding 24 hours earlier were harvested and washed with cold PBS; PGG (1, 5, 10 μM) was added to the medium 15 min or 24 hours prior to harvest. Cells were incubated in lysis buffer (50 mM Tris-HCl (pH 7.4), 150 mM NaCl, 1% Triton X-100, 0.1% SDS and 1 mM EDTA) supplemented with protease inhibitors ([…] and 1 mM of 4-(2-aminoethyl) benzenesulfonyl fluoride) and phosphatase inhibitors (1 mM NaF and 1 mM Na3VO4) for 20 min on ice. Lysates were centrifuged at 14,000 g for 20 min at 4° C. Lysates containing […] of protein were fractionated by SDS-PAGE and electrotransferred to a Hybond ECL transfer membrane (Amersham Pharmacia, Arlington Heights, Ill.). The blocked membranes were then incubated with primary antibodies (1:200 dilution) of HABP. […]

MDCK I cells [5] = experiment: [14C]COM crystal binding assay; type: cell-based, Canine
Description: Calcium oxalate monohydrate (COM) crystals were prepared from supersaturated solutions. To prepare radioactive COM crystals, [^14C]oxalic acid (30-60 mCi/mmol; ICN Biomedicals, Irivine, Calif., USA) was added to a sodium oxalate solution, producing a specific activity of 10^5 cpm/mL, and sufficient calcium chloride was then added to form a supersaturated solution. […] Dulbecco-Vogt modified Eagle's essential medium (DMEM; GIBCO, Life Technologies Inc., NY), antibiotic-antimycotics were purchased from GIBCO (Grand island, NY). Fetal bovine serum (FBS) was from JRH (Lenexa, Kans.). HEPES (N-[2-hydroxyethyl]piperazine-N′-[2-ethanesulfonic acid]), sodium bicarbonate, MTT (3-(4,5-dimethylthiazol-2-yl)-2,5-diphenyltetrazolium bromide, BSA (bovine serum albumin were obtained from Sigma Chemical Co. (St. Louis, Mo.).
as §1
MDCK I cells were treated with various concentrations (1, 5 and 10 μM) of PGG for 15 min or 24 h with and without wound damage and washed with phosphate-buffered saline (PBS, pH 7.4). Then [^14C] calcium oxalate monohydrate (COM) crystals were added to MDCK 1 cells, until a final concentration of 200 μg/mL (41.6 μg/cm^2 of cells) was achieved. The culture dishes were gently agitated for 5 seconds to uniformly distribute the crystals so that they settled to the surface of the cell monolayer under the force of gravity. After 2 min, the buffer was aspirated and the cells were washed 3 times with PBS. The cells and adherent crystals were then liquefied in 1 mL of 10% NaOH for 1 h and transferred to a scintillation vial containing 4.5 mL of Ecoscient (National Diagnostics, E. Palmetto, Fla., USA). The amount of radioactivity was measured, as described previously (See Riese, R. J. et al. Am J. Physiol (1992) 262: F177-84). Similarly, to precoat the [^14C]COM crystals with PGG, 0.4 mg [^14C]COM crystals were placed in a 5-mL tube containing 2 mL of a solution containing various concentrations (1, 5 and 10 μM) of PGG diluted in PBS. The crystals were incubated under end-over-end rotation for 15 min at room temperature, pelleted by centrifugation at 2,000 r.p.m. for 5 min, washed with PBS and then resuspended in 2 mL PBS. Two minutes later, the crystal binding activity was measured as described above.

## O=C(OC[C@H]1O[C@@H](OC(=O)c2cc(O)c(O)c(O)c2)[C@H](OC(=O)c2cc(O)c(O)c(O)c2)[C@@H](OC(=O)c2cc(O)c(O)c(O)c2)[C@@H]1OC(=O)c1cc(O)c(O)c(O)c1)c1cc(O)c(O)c(O)c1 [PGG, 1,2,3,4,6-penta-O-galloyl-beta-D-glucose]
MDCK I cells [1]; 1 μM PGG
  inhibition at 1 µM: 2%
MDCK I cells [1]; 5 μM PGG
  inhibition at 5 µM: 26%
MDCK I cells [1]; 10 μM PGG
  inhibition at 10 µM: 49%
[2]; 20 mg/kg PGG
  survival rate compared with normal group: mirrored that of those in the normal group
[2]; PGG 4 mg/kg + EG
  Serum BUN (mean ± SD): 24.6 ± 3.9 mg/dL
  Serum Calcium (mean ± SD): 10.9 ± 1.1 mg/dL
  Serum Creatinine (mean ± SD): 0.6 ± 0.5 mg/dL
  Serum Phosphate (mean ± SD): 10.7 ± 1.4 mg/dL
  Serum Uric acid (mean ± SD): 2.9 ± 3.2 mg/dL
  Urine Calcium: 2.95 ± 0.31
  Urine Mean Vol ± SD: 33.0 ± 3.74 mL
  Urine Mean pH ± SD: 6.7 ± 1.2
[2]; PGG 4 mg/kg
  Survival (%): 83%
[2]; PGG 20 mg/kg + EG
  Serum BUN (mean ± SD): 23.3 ± 3.7 mg/dL
  Serum Calcium (mean ± SD): 10.5 ± 0.3 mg/dL
  Serum Creatinine (mean ± SD): 0.6 ± 0.1 mg/dL
  Serum Phosphate (mean ± SD): 9.4 ± 0.8 mg/dL
  Serum Uric acid (mean ± SD): 1.6 ± 1.0 mg/dL
  Urine Calcium: 3.52 ± 0.31
  Urine Mean Vol ± SD: 34.7 ± 3.59 mL
  Urine Mean pH ± SD: 7.1 ± 0.8
[2]; PGG 20 mg/kg
  Survival (%): 100%
[2]; upon administration of PGG, FIG. 12 and Table 4
  survival time of the rats: increased
[2]; urine at 21 days, FIG. 14
  number of stones (calcium oxalate in urine) versus stone group: considerably less
MDCK I cells [3]; concentrations up to 25 uM, 24 h, FIG. 1
  cytotoxicity against MDCK I cells: did not exert any significant cytotoxicity
MDCK I cells [3]; except at high concentrations
  cytotoxicity on MDCK I cells (FIG. 1 legend): lack of cytotoxicity
[4]; FIG. 7
  body weight of mice, PGG versus control groups: no significant difference
[4]; FIG. 9
  hematological values: did not affect
[4]; FIG. 10
  GOT and GPT levels: did not affect
[4]; FIGS. 8 and 11
  shapes and weights of organs (spleen, liver, kidney, lung): did not affect
hyaluronan; 24 hours exposure, 1-10 μM, FIG. 6B
  total cell hyaluronan expression by wounded monolayers (Western blot), effect versus 15 min: slightly more pronounced
hyaluronan; PGG treatment 15 minutes or 24 hours, concentration dependent, FIG. 6A
  hyaluronan expression on the surface of wounded MDCK 1 cells (confocal microscopy): attenuated
hyaluronan; within 15 minutes of PGG addition, FIG. 6B
  total cell hyaluronan expression by wounded monolayers (Western blot): decreased
MDCK I cells [5]; PGG added to the buffer, concentration-dependent, FIG. 4A
  COM crystal adhesion to MDCK I cells: significantly reduced
MDCK I cells [5]; after 15 min or 24 h incubation time, FIGS. 2A and 2B
  COM adhesion to scrape-wounded MDCK I cells: significantly inhibited
MDCK I cells [5]; cells pretreated 15 minutes or 24 hours, FIG. 5
  crystal binding by PGG-pretreated MDCK I cells: bound less crystals
MDCK I cells [5]; crystals precoated with PGG 15 min, concentration-dependent, FIG. 4B
  binding of PGG-precoated COM crystals to cells: decrease their subsequent binding to cells
